Data taken from publication PMC5433929, “High-resolution crystal structure of the human CB1 cannabinoid receptor” (Nature, 2016).

Tests used:
CB1-PGS = CB1-PGS (Homo sapiens, UniProt P21554, DEL304-332/H302F/INS301[…]); assay: Differential scanning fluorimetry on detergent-solubilized receptor; conditions: 10 μM ligand
CB1 = target: CB1; set-up: method as in PMID 17327489; conditions: cited from earlier work
CB2 = target: CB2; set-up: method as in PMID 17327489; conditions: cited from earlier work

Sequence of CB1-PGS (P21554 with tags, fused parts or gaps INS301[withheld]/H302F/DEL304-332): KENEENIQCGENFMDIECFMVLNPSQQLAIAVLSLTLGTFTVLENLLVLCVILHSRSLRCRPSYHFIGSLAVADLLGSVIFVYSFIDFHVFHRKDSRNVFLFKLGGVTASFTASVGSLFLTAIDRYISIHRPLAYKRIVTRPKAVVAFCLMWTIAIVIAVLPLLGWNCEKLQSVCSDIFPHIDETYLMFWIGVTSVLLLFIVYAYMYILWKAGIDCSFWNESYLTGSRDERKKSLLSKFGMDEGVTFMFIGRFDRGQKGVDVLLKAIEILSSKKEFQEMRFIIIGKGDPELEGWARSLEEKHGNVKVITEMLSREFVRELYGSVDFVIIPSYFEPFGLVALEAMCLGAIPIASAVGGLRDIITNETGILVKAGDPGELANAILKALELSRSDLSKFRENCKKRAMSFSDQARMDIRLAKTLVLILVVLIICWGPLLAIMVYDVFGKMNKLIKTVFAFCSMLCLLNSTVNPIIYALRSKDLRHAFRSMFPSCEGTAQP

effect on receptor thermostability (DSF) (CB1-PGS): enhanced thermostability
Compound: C[C@H](NC(=O)C(C)(C)Oc1ccc(C(F)(F)F)cn1)[C@@H](Cc1ccc(Cl)cc1)c1cccc(C#N)c1 [taranabant, N-[(1S,2S)-3-(4-chlorophenyl)-2-(3-cyanophenyl)-1-methylpropyl]-2-methyl-2-{[5-(trifluoromethyl)pyridin-2-yl]oxy}propanamide]
Ki (CB1): 0.13 nM
Ki (CB2): 170 nM
